According to patent publication US11161852B1 (Halia Therapeutics, Inc., priority 2020, dated 2021):

target: full-length recombinant human NEK7 (Homo sapiens (Human), UniProt Q8TDX7); experiment: NEK7 Enzymatic Assay ([33P]-ATP, casein substrate); type: biochemical
Protocol: Casein substrate (from bovine milk, hydrolyzed and partially dephosphorylated mixture of α, β and a caseins, obtained from Sigma Aldrich, catalogue #C4765, diluted in distilled water to a final concentration of 1 mg/mL) and full-length recombinant human NEK7 (expressed by baculovirus in Sf9 insect cells using a N-terminal GST tag, obtained from SignalChem, catalogue #N09-10G, 0.1 μg/μL) were mixed in assay buffer (20 mM Hepes pH 7.5, 10 mM MgCl2, 1 mM EGTA, 0.02% Brij35, 0.02 mg/ml BSA, 0.1 mM Na3VO4, 2 mM DTT, 1% DMSO). Compounds of interest (serial 3-fold dilution in DMSO from 10 μM to 0.5 nM) or vehicle (1% DMSO) were dispensed into the kinase reaction mixture by Acoustic technology (Echo550; nanoliter range). After incubation at room temperature for 20 minutes, the kinase reaction was initiated by addition of [^33P]-ATP (specific activity […]) and the mixture was incubated at room temperature for 2 hours. The reaction was then stopped by spotting the reaction mixture on strips of phosphocellulose P81 paper. Following washing, the radioactivity of the P81 paper was measured and kinase activity data were expressed as the percent remaining kinase activity in test samples compared to vehicle reactions. IC50 values and curve fits were obtained using Prism (GraphPad Software).

full-length recombinant human NEK7, sequence (Q8TDX7 whole entry): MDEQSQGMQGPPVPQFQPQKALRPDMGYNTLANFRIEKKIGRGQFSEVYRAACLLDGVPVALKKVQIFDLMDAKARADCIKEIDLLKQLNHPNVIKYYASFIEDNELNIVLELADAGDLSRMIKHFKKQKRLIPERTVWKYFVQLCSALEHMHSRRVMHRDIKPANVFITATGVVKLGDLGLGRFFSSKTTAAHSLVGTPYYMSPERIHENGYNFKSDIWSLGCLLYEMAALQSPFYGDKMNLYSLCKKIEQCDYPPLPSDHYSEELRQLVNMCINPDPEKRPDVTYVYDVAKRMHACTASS

Question: How did the IC50 turn out when “1-(4-(4-amino-7-(2-hydroxy-2-methylpropyl)-7H-pyrrolo[2,3-d]pyrimidin-5-yl)-2-fluorophenyl)-3-(5-(1-(trifluoromethyl)cyclopropyl)isoxazol-3-yl)urea [Example 47]” was run?
Answer: < 150 nM

Question: With `Nc1ncnc2c1c(-c1ccc(NC(=O)Nc3cc(C4(C(F)(F)F)CCC4)on3)c(F)c1)cn2C1CC1` [Example 57, 1-(4-(4-amino-7-cyclopropyl-7H-pyrrolo[2,3-d]pyrimidin-5-yl)-2-fluorophenyl)-3-(5-(1-(trifluoromethyl)cyclobutyl)isoxazol-3-yl)urea] as the compound, how does the IC50 read?
Answer: < 150 nM

Question: With `Nc1ncnc2c1c(-c1ccc(NC(=O)Nc3cc(C4(C(F)(F)F)CC4)no3)c(F)c1)cn2CCO` [Example 52, 1-(4-(4-amino-7-(2-hydroxyethyl)-7H-pyrrolo[2,3-d]pyrimidin-5-yl)-2-fluorophenyl)-3-(3-(1-(trifluoromethyl)cyclopropyl)isoxazol-5-yl)urea] as the compound, how does the IC50 read?
Answer: < 150 nM

Question: For `Nc1ncnc2c1c(-c1ccc(NC(=O)Nc3cc(C4(C(F)(F)F)CCC4)no3)c(F)c1)cn2C1CC1` [Example 45, 1-(4-(4-amino-7-cyclopropyl-7H-pyrrolo[2,3-d]pyrimidin-5-yl)-2-fluorophenyl)-3-(3-(1-(trifluoromethyl)cyclobutyl)isoxazol-5-yl)urea], which IC50 is on record?
Answer: 151 to 300 nM

Question: How did the IC50 turn out when `CC(C)(C)n1cnc(NC(=O)Nc2ccc(-c3cn(C4CC4)c4ncnc(N)c34)cc2F)n1` [Example 22, 1-(4-(4-amino-7-cyclopropyl-7H-pyrrolo[2,3-d]pyrimidin-5-yl)-2-fluorophenyl)-3-(1-(tert-butyl)-1H-1,2,4-triazol-3-yl)urea] was run?
Answer: > 1500 nM

Question: Which IC50 does the source give for `CC(C)(C)c1nnc(NC(=O)Nc2ccc(-c3cn(C4CC4)c4ncnc(N)c34)cc2F)o1` [Example 23, 1-(4-(4-amino-7-cyclopropyl-7H-pyrrolo[2,3-d]pyrimidin-5-yl)-2-fluorophenyl)-3-(5-(tert-butyl)-1,3,4-oxadiazol-2-yl)urea] here?
Answer: 301 to 500 nM

Question: Which IC50 does the source give for `Nc1ncnc2c1c(-c1cc(F)c(NC(=O)Nc3cc(C4(C(F)(F)F)CC4)no3)cc1F)cn2C1CC1` [Example 42, 1-(4-(4-amino-7-cyclopropyl-7H-pyrrolo[2,3-d]pyrimidin-5-yl)-2,5-difluorophenyl)-3-(3-(1-(trifluoromethyl)cyclopropyl)isoxazol-5-yl)urea] here?
Answer: 501 to 1500 nM

Question: `Nc1ncnc2c1c(-c1ccc(NC(=O)Nc3cc(C4(C(F)(F)F)CC4)no3)c(Cl)c1)cn2C1CC1` [Example 54, 1-(4-(4-amino-7-cyclopropyl-7H-pyrrolo[2,3-d]pyrimidin-5-yl)-2-chlorophenyl)-3-(3-(1-(trifluoromethyl)cyclopropyl)isoxazol-5-yl)urea] was tested. Which IC50 did it give?
Answer: > 1500 nM

Question: With `CC(C)(C)c1cc(NC(=O)Nc2ccc(-c3cn(C4CC4)c4ncnc(N)c34)cc2F)no1` [Example 4, 1-(4-(4-amino-7-cyclopropyl-7H-pyrrolo[2,3-d]pyrimidin-5-yl)-2-fluorophenyl)-3-(5-(tert-butyl)isoxazol-3-yl)urea] as the compound, how does the IC50 read?
Answer: < 150 nM

Question: How did the IC50 turn out when `Nc1ncnc2c1c(-c1cnc(NC(=O)Nc3cc(C4(C(F)(F)F)CC4)no3)c(F)c1)cn2C1CC1` [Example 44] was run?
Answer: 501 to 1500 nM

Question: `CC(C)(C)c1cc(NC(=O)NC2CCC(c3cn(C4CC4)c4ncnc(N)c34)CC2)on1` (stereo not drawn) [Example 16, 1-(4-(4-amino-7-cyclopropyl-7H-pyrrolo[2,3-d]pyrimidin-5-yl)cyclohexyl)-3-(3-(tert-butyl)isoxazol-5-yl)urea] was tested. Which IC50 did it give?
Answer: > 1500 nM

Question: How did the IC50 turn out when `CC(C)(c1cc(NC(=O)Nc2ccc(-c3cn(C4CC4)c4ncnc(N)c34)cc2F)on1)C(F)(F)F` [Example 12, 1-(4-(4-amino-7-cyclopropyl-7H-pyrrolo[2,3-d]pyrimidin-5-yl)-2-fluorophenyl)-3-(3-(1,1,1-trifluoro-2-methylpropan-2-yl)isoxazol-5-yl)urea] was run?
Answer: 151 to 300 nM

Question: Which IC50 does the source give for `CC1(c2cc(NC(=O)Nc3ccc(-c4cn(C5CC5)c5ncnc(N)c45)cc3F)on2)COC1` [Example 27, 1-(4-(4-amino-7-cyclopropyl-7H-pyrrolo[2,3-d]pyrimidin-5-yl)-2-fluorophenyl)-3-(3-(3-methyloxetan-3-yl)isoxazol-5-yl)urea] here?
Answer: < 150 nM

Question: For `CC(C)(C)c1csc(NC(=O)Nc2ccc(-c3cn(C4CC4)c4ncnc(N)c34)cc2F)n1` [Example 18, 1-(4-(4-amino-7-cyclopropyl-7H-pyrrolo[2,3-d]pyrimidin-5-yl)-2-fluorophenyl)-3-(4-(tert-butyl)thiazol-2-yl)urea], which IC50 is on record?
Answer: > 1500 nM

Question: Which IC50 does the source give for `CN1CCC(n2cc(-c3ccc(NC(=O)Nc4cc(C5(C(F)(F)F)CC5)no4)c(F)c3)c3c(N)ncnc32)CC1` [Example 26, 1-(4-(4-amino-7-(1-methylpiperidin-4-yl)-7H-pyrrolo[2,3-d]pyrimidin-5-yl)-2-fluorophenyl)-3-(3-(1-(trifluoromethyl)cyclopropyl)isoxazol-5-yl)urea] here?
Answer: 301 to 500 nM

Question: How did the IC50 turn out when `Nc1ncnc2c1c(-c1ccc(NC(=O)Nc3cc(C4(C(F)(F)F)CC4)no3)c(CO)c1)cn2C1CC1` [Example 49, 1-(4-(4-amino-7-cyclopropyl-7H-pyrrolo[2,3-d]pyrimidin-5-yl)-2-(hydroxymethyl)phenyl)-3-(3-(1-(trifluoromethyl)cyclopropyl)isoxazol-5-yl)urea] was run?
Answer: > 1500 nM

Question: For `CC(C)(C)c1cc(NC(=O)Nc2ccc(-c3cn(C4COC4)c4ncnc(N)c34)cc2)on1` [Example 1, 1-(4-(4-amino-7-(oxetan-3-yl)-7H-pyrrolo[2,3-d]pyrimidin-5-yl)phenyl)-3-(3-(tert-butyl)isoxazol-5-yl)urea], which IC50 is on record?
Answer: 151 to 300 nM

Question: For `Cc1cc(NC(=O)Nc2ccc(-c3cn(C4CC4)c4ncnc(N)c34)cc2F)no1` [Example 8, 1-(4-(4-amino-7-cyclopropyl-7H-pyrrolo[2,3-d]pyrimidin-5-yl)-2-fluorophenyl)-3-(5-methylisoxazol-3-yl)urea], which IC50 is on record?
Answer: 501 to 1500 nM

Question: Which IC50 does the source give for `COCCn1cc(-c2ccc(NC(=O)Nc3cc(C4(C(F)(F)F)CC4)no3)c(F)c2)c2c(N)ncnc21` [Example 51, 1-(4-(4-amino-7-(2-methoxyethyl)-7H-pyrrolo[2,3-d]pyrimidin-5-yl)-2-fluorophenyl)-3-(3-(1-(trifluoromethyl)cyclopropyl)isoxazol-5-yl)urea] here?
Answer: < 150 nM

Question: `Nc1ncnc2c1c(-c1ccc(NC(=O)Nc3cc(C4(C(F)(F)F)CC4)on3)c(F)c1)cn2C1CCC1` [Example 58, 1-(4-(4-amino-7-cyclobutyl-7H-pyrrolo[2,3-d]pyrimidin-5-yl)-2-fluorophenyl)-3-(5-(1-(trifluoromethyl)cyclopropyl)isoxazol-3-yl)urea] was tested. Which IC50 did it give?
Answer: 501 to 1500 nM

Question: Which IC50 does the source give for `CC(C)(C)c1cc(NC(=O)Nc2ccc(-c3cn(C4CC4)c4ncnc(N)c34)cc2)on1` [Example 13, 1-(4-(4-amino-7-cyclopropyl-7H-pyrrolo[2,3-d]pyrimidin-5-yl)phenyl)-3-(3-(tert-butyl)isoxazol-5-yl)urea] here?
Answer: 301 to 500 nM

Question: With `COc1cc(-c2cn(C3CC3)c3ncnc(N)c23)ccc1NC(=O)Nc1cc(C2(C(F)(F)F)CC2)no1` [Example 55, 1-(4-(4-amino-7-cyclopropyl-7H-pyrrolo[2,3-d]pyrimidin-5-yl)-2-methoxyphenyl)-3-(3-(1-(trifluoromethyl)cyclopropyl)isoxazol-5-yl)urea] as the compound, how does the IC50 read?
Answer: > 1500 nM

Question: For `Nc1ncnc2c1c(-c1ccc(NC(=O)Nc3cc(C4(C(F)(F)F)CC4)no3)c(F)c1)cn2-c1cccnc1` [Example 24, 1-(4-(4-amino-7-(pyridin-3-yl)-7H-pyrrolo[2,3-d]pyrimidin-5-yl)-2-fluorophenyl)-3-(3-(1-(trifluoromethyl)cyclopropyl)isoxazol-5-yl)urea], which IC50 is on record?
Answer: 501 to 1500 nM

Question: How did the IC50 turn out when `CCC(C)c1cc(NC(=O)Nc2ccc(-c3cn(C4CC4)c4ncnc(N)c34)cc2F)on1` (stereo not drawn) [Example 30, 1-(4-(4-amino-7-cyclopropyl-7H-pyrrolo[2,3-d]pyrimidin-5-yl)-2-fluorophenyl)-3-(3-(sec-butyl)isoxazol-5-yl)urea] was run?
Answer: 151 to 300 nM

Question: With `CC(C)(CO)c1cc(NC(=O)Nc2ccc(-c3cn(C4CC4)c4ncnc(N)c34)cc2F)on1` [Example 29, 1-(4-(4-amino-7-cyclopropyl-7H-pyrrolo[2,3-d]pyrimidin-5-yl)-2-fluorophenyl)-3-(3-(1-hydroxy-2-methylpropan-2-yl)isoxazol-5-yl)urea] as the compound, how does the IC50 read?
Answer: 301 to 500 nM

Question: With `Nc1ncnc2c1c(-c1cnc(NC(=O)Nc3cc(C4(C(F)(F)F)CC4)no3)nc1)cn2C1CC1` [Example 48, 1-(5-(4-amino-7-cyclopropyl-7H-pyrrolo[2,3-d]pyrimidin-5-yl)pyrimidin-2-yl)-3-(3-(1-(trifluoromethyl)cyclopropyl)isoxazol-5-yl)urea] as the compound, how does the IC50 read?
Answer: > 1500 nM

Question: Which IC50 does the source give for `CCc1cc(NC(=O)Nc2ccc(-c3cn(C4CC4)c4ncnc(N)c34)cc2F)on1` [Example 33, 1-(4-(4-amino-7-cyclopropyl-7H-pyrrolo[2,3-d]pyrimidin-5-yl)-2-fluorophenyl)-3-(3-ethylisoxazol-5-yl)urea] here?
Answer: < 150 nM

Question: `Nc1ncnc2c1c(-c1ccc(NC(=O)Nc3cc(C4CC4)on3)c(F)c1)cn2C1CC1` [Example 6] was tested. Which IC50 did it give?
Answer: 301 to 500 nM

Question: For `Nc1ncnc2c1c(-c1ccc(NC(=O)Nc3cc(C4(C(F)(F)F)CC4)no3)c(F)c1)cn2-c1ccncc1` [Example 25], which IC50 is on record?
Answer: 501 to 1500 nM

Question: With `Nc1ncnc2c1c(-c1c(F)cc(NC(=O)Nc3cc(C4(C(F)(F)F)CC4)no3)cc1F)cn2C1CC1` [Example 43, 1-(4-(4-amino-7-cyclopropyl-7H-pyrrolo[2,3-d]pyrimidin-5-yl)-3,5-difluorophenyl)-3-(3-(1-(trifluoromethyl)cyclopropyl)isoxazol-5-yl)urea] as the compound, how does the IC50 read?
Answer: > 1500 nM
